Data: US20080064668A1, “1,3-Diacylated, 26,27-Alkyl/Haloakyl Vitamin D3 Compounds and Methods of Use Thereof” (BioXell S.p.A., priority 2003, published 2008)

How the values were obtained:
HT 1376 = assay: Proliferation assay using bladder cancer cell lines, HT1376; type: cell-based, human; details: Homo sapiens, HT-1376; 72 h culture, CyQuant proliferation assay
Procedure: Bladder cancer cell lines (T24, RT112, HT1376 and RT4 are human bladder cancer cell lines; NHEK are normal human keratinocytes) were obtained from the European Collection of Cell Cultures (Salisbury, UK). Cells were plated at 3×10^3 per well, in flat bottomed 96-well plates in 100 μl of DMEM medium containing: 5% Fetal Clone I, 50 μg/l gentamicin, 1 mM sodium pyruvate and 1% non-essential amino acids. After culturing for 24 h at 37° C. in 5% CO2, to allow cells to adhere to the plates, VDR ligands (compounds (2), (4), (5) and other vitamin D3 analogs as shown in Table 4) were added at concentrations ranging from 100 μM to 0.3 μM in 100 μl of above-mentioned complete medium. After a further 72 h of culture, cell proliferation was measured using a fluorescence-based proliferation assay kit. (CyQuant Cell Proliferation Assay Kit, Molecular Probes, Eugene, Oreg., USA). The IC50 was calculated from the regression curve of the titration data.

non-obese (NOD)/Lt mice = assay: Inhibition of Type 1 Diabetes development by VDR ligand administration; type: in vivo; details: for mice diabetic by 27 weeks of age: vehicle controls about 70%
Procedure: The non-obese (NOD)/Lt mice used for the experiments were purchased from Charles River Laboratories (Calco, Italy). All mice were kept under specific pathogen-free conditions. Glucose levels in the tail venous blood were quantified using a EUROFlash (Lifescan, Issy les Moulineaux, France). A diagnosis of diabetes was after two sequential glucose measurements higher than 200 mg/dl.
1,3-Di-O-acetyl-1,25-dihydroxy-16,23Z-diene-26,27-hexafluoro-19-nor-cholecalciferol (2) was dissolved in ethanol (1 mg/ml) and then diluted in miglyol 812. […]

[1] = test system: rats with CYP-induced cystitis; assay: Cyclophosphamide (CYP) induced chronic IC in rats, cystometry; type: in vivo, Wistar rats
From the text: The rat model of chemical cystitis induced by intraperitoneal injection of CYP has been well accepted. CYP is used in clinical practice in the treatment of a number of malignant tumors. One of its metabolites, acrolein, is excreted in urine in large concentrations causing hemorrhagic cystitis associated with symptoms of urinary frequency, urgency and pelvic pain. The inflammatory process is characterized by changes in gross histology of bladder, increase in number and distribution of inflammatory cell infiltrates (mast cells, macrophage, PMNs), cyclo-oxygenase-2 expression and prostaglandin production, growth factor and cytokine production. […]
This model was used to test the effects of 1,25-dihydroxyvitamin D3 analogue in rats with CYP-induced cystitis. The effects of the treatment on the cystometric parameters in a conscious freely moving rat with CYP-induced cystitis were monitored. The following cystometric parameters were recorded in each animal: bladder capacity, filling pressure (pressure at the beginning of the bladder filling), threshold pressure (bladder pressure immediately prior to micturition), micturition pressure (the maximal bladder pressure during micturition), presence or absence of non-voiding bladder contractions (increases in bladder pressure of at least 10 cm H20 without release of urine), and amplitude of non-voiding bladder contraction. […]

## CC(=O)OC1C/C(=C/C=C2\CCC[C@]3(C)C(C(C)C/C=C\C(O)(C(F)(F)F)C(F)(F)F)=CCC23)C[C@@H](OC(C)=O)C1 (stereo partly drawn) [Compound (2), 1,3-Di-O-acetyl-1,25-dihydroxy-16,23Z-diene-26,27-hexafluoro-19-nor-cholecalciferol]
HT 1376
  IC50: 100 µM
non-obese (NOD)/Lt mice; 0.1 ug/kg p.o., week 8
  Percent Type 1 Diabetes Mellitus incidence: 2%
non-obese (NOD)/Lt mice; 0.1 ug/kg p.o., week 12
  Percent Type 1 Diabetes Mellitus incidence: 2%
non-obese (NOD)/Lt mice; 0.1 ug/kg p.o., week 13
  Percent Type 1 Diabetes Mellitus incidence: 2%
non-obese (NOD)/Lt mice; 0.1 ug/kg p.o., week 14
  Percent Type 1 Diabetes Mellitus incidence: 2%
non-obese (NOD)/Lt mice; 0.1 ug/kg p.o., week 15
  Percent Type 1 Diabetes Mellitus incidence: 2%
non-obese (NOD)/Lt mice; 0.1 ug/kg p.o., week 16
  Percent Type 1 Diabetes Mellitus incidence: 2%
non-obese (NOD)/Lt mice; 0.1 ug/kg p.o., week 17
  Percent Type 1 Diabetes Mellitus incidence: 10%
non-obese (NOD)/Lt mice; 0.1 ug/kg p.o., week 18
  Percent Type 1 Diabetes Mellitus incidence: 10%
non-obese (NOD)/Lt mice; 0.1 ug/kg p.o., week 19
  Percent Type 1 Diabetes Mellitus incidence: 10%
non-obese (NOD)/Lt mice; 0.1 ug/kg p.o., week 20
  Percent Type 1 Diabetes Mellitus incidence: 10%
non-obese (NOD)/Lt mice; 0.1 ug/kg p.o., week 21
  Percent Type 1 Diabetes Mellitus incidence: 20%
non-obese (NOD)/Lt mice; 0.1 ug/kg p.o., week 22
  Percent Type 1 Diabetes Mellitus incidence: 30%
non-obese (NOD)/Lt mice; 0.1 ug/kg p.o., week 23
  Percent Type 1 Diabetes Mellitus incidence: 30%
non-obese (NOD)/Lt mice; 0.1 ug/kg p.o., week 24
  Percent Type 1 Diabetes Mellitus incidence: 40%
non-obese (NOD)/Lt mice; 0.1 ug/kg p.o., week 25
  Percent Type 1 Diabetes Mellitus incidence: 40%
non-obese (NOD)/Lt mice; 0.1 ug/kg p.o., week 26
  Percent Type 1 Diabetes Mellitus incidence: 40%
non-obese (NOD)/Lt mice; 0.1 ug/kg p.o., week 27
  Percent Type 1 Diabetes Mellitus incidence: 40%
non-obese (NOD)/Lt mice; 0.1 mg/Kg per os 5×/week from 8 to 16 weeks of age
  mice diabetic by 27 weeks of age: 30%
non-obese (NOD)/Lt mice; 0.2 mg/Kg per os 5×/week from 8 to 16 weeks of age
  mice diabetic by 27 weeks of age: 40%
non-obese (NOD)/Lt mice; 0.2 mg/kg p.o., week 8
  Percent Type 1 Diabetes Mellitus incidence: 1%
non-obese (NOD)/Lt mice; 0.2 mg/kg p.o., week 12
  Percent Type 1 Diabetes Mellitus incidence: 1%
non-obese (NOD)/Lt mice; 0.2 mg/kg p.o., week 13
  Percent Type 1 Diabetes Mellitus incidence: 1%
non-obese (NOD)/Lt mice; 0.2 mg/kg p.o., week 14
  Percent Type 1 Diabetes Mellitus incidence: 1%
non-obese (NOD)/Lt mice; 0.2 mg/kg p.o., week 15
  Percent Type 1 Diabetes Mellitus incidence: 1%
non-obese (NOD)/Lt mice; 0.2 mg/kg p.o., week 16
  Percent Type 1 Diabetes Mellitus incidence: 1%
non-obese (NOD)/Lt mice; 0.2 mg/kg p.o., week 17
  Percent Type 1 Diabetes Mellitus incidence: 1%
non-obese (NOD)/Lt mice; 0.2 mg/kg p.o., week 18
  Percent Type 1 Diabetes Mellitus incidence: 1%
non-obese (NOD)/Lt mice; 0.2 mg/kg p.o., week 19
  Percent Type 1 Diabetes Mellitus incidence: 1%
non-obese (NOD)/Lt mice; 0.2 mg/kg p.o., week 20
  Percent Type 1 Diabetes Mellitus incidence: 10%
non-obese (NOD)/Lt mice; 0.2 mg/kg p.o., week 21
  Percent Type 1 Diabetes Mellitus incidence: 10%
non-obese (NOD)/Lt mice; 0.2 mg/kg p.o., week 22
  Percent Type 1 Diabetes Mellitus incidence: 10%
non-obese (NOD)/Lt mice; 0.2 mg/kg p.o., week 23
  Percent Type 1 Diabetes Mellitus incidence: 20%
non-obese (NOD)/Lt mice; 0.2 mg/kg p.o., week 24
  Percent Type 1 Diabetes Mellitus incidence: 20%
non-obese (NOD)/Lt mice; 0.2 mg/kg p.o., week 25
  Percent Type 1 Diabetes Mellitus incidence: 20%
non-obese (NOD)/Lt mice; 0.2 mg/kg p.o., week 26
  Percent Type 1 Diabetes Mellitus incidence: 30%
non-obese (NOD)/Lt mice; 0.2 mg/kg p.o., week 27
  Percent Type 1 Diabetes Mellitus incidence: 30%
non-obese (NOD)/Lt mice; NOD/Lt female mice, 0.1 or 0.2 mg/Kg per os
  incidence of disease compared to controls: significantly lower
[1]
  ability to treat bladder dysfunction: has the ability to treat bladder dysfunction
